Measurements as given in patent publication US11021493B2, “1,4-thiazine dioxide and 1,2,4-thiadiazine dioxide derivatives as beta-secretase inhibitors and methods of use” (AMGEN INC., priority 2016, dated 2021).

Legend:
BACE1 [1] = target: T1, BACE1 (Homo sapiens (Human), UniProt P56817); test: In vitro enzymatic BACE1 FRET assay; assay type: biochemical; settings: read-out: BACE1 Enzyme IC50
Target sequence in this assay (P56817 46-501): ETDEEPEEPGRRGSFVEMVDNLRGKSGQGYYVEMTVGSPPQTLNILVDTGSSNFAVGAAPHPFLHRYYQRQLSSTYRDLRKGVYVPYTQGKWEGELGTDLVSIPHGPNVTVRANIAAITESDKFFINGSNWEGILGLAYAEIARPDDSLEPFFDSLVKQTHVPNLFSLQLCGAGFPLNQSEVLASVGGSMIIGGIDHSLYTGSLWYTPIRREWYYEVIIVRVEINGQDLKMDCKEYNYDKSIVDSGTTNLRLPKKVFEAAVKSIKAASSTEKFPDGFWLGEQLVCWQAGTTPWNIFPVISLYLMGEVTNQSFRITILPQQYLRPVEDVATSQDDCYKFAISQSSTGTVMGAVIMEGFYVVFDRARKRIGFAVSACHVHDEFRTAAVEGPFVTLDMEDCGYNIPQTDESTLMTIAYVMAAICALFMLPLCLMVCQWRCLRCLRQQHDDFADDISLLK

BACE1 [2] = target: T1, BACE1; test: In vitro BACE1 cell-based assay (Aβ40 in conditioned medium of cells stably expressing APP, HTRF)
Target sequence in this assay (P56817 46-501, species assumed): as the sequence (P56817 46-501) above

human recombinant BACE2 = human recombinant BACE2 (Homo sapiens (Human), UniProt Q9Y5Z0); test: In vitro enzymatic BACE2 FRET assay; assay type: biochemical; settings: read-out: BACE2 Enzyme IC50
human recombinant BACE2, sequence (Q9Y5Z0 63-518): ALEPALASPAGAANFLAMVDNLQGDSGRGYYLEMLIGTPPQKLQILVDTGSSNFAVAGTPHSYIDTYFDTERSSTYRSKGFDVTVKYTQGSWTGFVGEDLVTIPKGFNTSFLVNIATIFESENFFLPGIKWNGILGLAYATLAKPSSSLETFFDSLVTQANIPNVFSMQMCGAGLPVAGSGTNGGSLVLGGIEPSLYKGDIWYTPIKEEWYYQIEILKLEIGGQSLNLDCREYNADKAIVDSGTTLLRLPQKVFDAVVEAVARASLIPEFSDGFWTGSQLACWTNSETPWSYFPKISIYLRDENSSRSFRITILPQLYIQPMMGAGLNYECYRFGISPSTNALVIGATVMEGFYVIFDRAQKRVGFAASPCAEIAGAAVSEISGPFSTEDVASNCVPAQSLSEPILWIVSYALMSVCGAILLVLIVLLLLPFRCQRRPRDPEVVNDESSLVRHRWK

Cathepsin D (CatD) = Cathepsin D (CatD) (Homo sapiens (Human), UniProt P07339); test: In vitro enzymatic Cathepsin D (CatD) FRET assay; assay type: biochemical; settings: read-out: Cat D Enzyme IC50
Cathepsin D (CatD), sequence (P07339 65-412, species assumed): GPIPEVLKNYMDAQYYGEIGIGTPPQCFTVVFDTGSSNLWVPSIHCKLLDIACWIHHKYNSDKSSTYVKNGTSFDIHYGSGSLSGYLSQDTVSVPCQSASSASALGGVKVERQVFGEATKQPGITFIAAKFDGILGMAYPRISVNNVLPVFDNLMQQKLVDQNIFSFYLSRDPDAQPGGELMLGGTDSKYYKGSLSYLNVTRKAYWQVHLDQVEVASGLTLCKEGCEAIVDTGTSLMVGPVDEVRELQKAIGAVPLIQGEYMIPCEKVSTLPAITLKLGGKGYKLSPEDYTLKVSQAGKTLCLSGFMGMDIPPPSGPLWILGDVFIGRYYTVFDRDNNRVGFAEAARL

[3] = Aβ40 in conditioned media after 24 h incubation

SMILES | IC50 (BACE1 [1]) | IC50 (BACE1 [2]) | IC50 (human recombinant BACE2) | IC50 (BACE1 [2]; [3]) | IC50 (Cathepsin D (CatD))
C#CCOc1cnc(/C(F)=C/c2ccc(F)c([C@@]3(C)N=C(N)C(C)(C)S(=O)(=O)[C@H]3F)c2)cn1 (single isomer, unassigned) [Example 200] | 18 nM | 206 nM | 86 nM |  | 
Cc1cc(COc2cnc(/C(F)=C/c3cc(F)c(F)c([C@]4(C)CS(=O)(=O)N(C)C(N)=N4)c3)cn2)on1 [Example 221, (R,Z)-3-amino-5-(2,3-difluoro-5-(2-fluoro-2-(5-((3-methylisoxazol-5-yl)methoxy)pyrazin-2-yl)vinyl)phenyl)-2,5-dimethyl-5,6-dihydro-2H-1,2,4-thiadiazine 1,1-dioxide] | 38 nM | 215 nM | 197 nM |  | 
CC1(C)C(N)=N[C@](C)(c2cc(/C=C(\F)c3cnc(Cl)cn3)cc(F)c2F)CS1(=O)=O [Example 193, (R,Z)-5-amino-3-(5-(2-(5-chloropyrazin-2-yl)-2-fluorovinyl)-2,3-difluorophenyl)-3,6,6-trimethyl-3,6-dihydro-2H-1,4-thiazine 1,1-dioxide] | 121 nM |  |  | 833 nM | 82300 nM
C#CCOc1cnc(/C(F)=C/c2ccc(F)c([C@@]3(C)N=C(N)C(C)(C)S(=O)(=O)[C@@H]3F)c2)cn1 (single isomer, unassigned) [Example 201] | 6 nM | 214 nM | 82 nM |  | 
C#CCOc1cnc(/C(F)=C/c2ccc(F)c([C@@]3(C)N=C(N)C(C)(C)S(=O)(=O)C3(F)F)c2)cn1 [Example 202, (R,Z)-5-amino-2,2-difluoro-3-(2-fluoro-5-(2-fluoro-2-(5-(prop-2-yn-1-yloxy)pyrazin-2-yl)vinyl)phenyl)-3,6,6-trimethyl-3,6-dihydro-2H-1,4-thiazine 1,1-dioxide] | 166 nM | 9570 nM | 870 nM |  | 
CN1C(N)=N[C@](C)(c2cc(/C=C(\F)c3cnc(OCc4ncco4)cn3)ccc2F)CS1(=O)=O [Example 116, (R,Z)-3-amino-5-(2-fluoro-5-(2-fluoro-2-(5-(oxazol-2-ylmethoxy)pyrazin-2-yl)vinyl)phenyl)-2,5-dimethyl-5,6-dihydro-2H-1,2,4-thiadiazine 1,1-dioxide] | 3 nM |  | 45 nM | 1 nM | 
C[C@]1(c2cc(/C=C(\F)c3ccc(Br)cn3)ccc2F)N=C(N)C2(CF)CC[C@@H]1S2(=O)=O (stereo in doubt) [Example 101, (1R,4R,5S)-2-amino-4-(5-((Z)-2-(5-bromopyridin-2-yl)-2-fluorovinyl)-2-fluorophenyl)-1-(fluoromethyl)-4-methyl-8-thia-3-azabicyclo[3.2.1]oct-2-ene 8,8-dioxide] | 5 nM |  | 13 nM | 79 nM | 
CN1C(N)=N[C@](C)(c2cc(/C=C(\F)c3cnc(OCC#CCO)cn3)ccc2F)CS1(=O)=O [Example 252, (R,Z)-3-amino-5-(2-fluoro-5-(2-fluoro-2-(5-((4-hydroxybut-2-yn-1-yl)oxy)pyrazin-2-yl)vinyl)phenyl)-2,5-dimethyl-5,6-dihydro-2H-1,2,4-thiadiazine 1,1-dioxide] | 10 nM |  | 56 nM | 7 nM | 
C#CCOc1cnc(/C(F)=C/c2ccc(F)c([C@]3(C)CS(=O)(=O)N(C)C(N)=N3)c2)cn1 [Example 112, (R,Z)-3-amino-5-(2-fluoro-5-(2-fluoro-2-(5-(prop-2-yn-1-yloxy)pyrazin-2-yl)vinyl)phenyl)-2,5-dimethyl-5,6-dihydro-2H-1,2,4-thiadiazine 1,1-dioxide] | 3 nM | 8 nM |  |  | 35800 nM
C#CCOc1cnc(/C(F)=C/c2ccc(F)c([C@]3(C)CS(=O)(=O)C(C)(C)C(N)=N3)c2)cn1 [Example 123, (R,Z)-5-amino-3-(2-fluoro-5-(2-fluoro-2-(5-(prop-2-yn-1-yloxy)pyrazin-2-yl)vinyl)phenyl)-3,6,6-trimethyl-3,6-dihydro-2H-1,4-thiazine 1,1-dioxide] | 1 nM | 3 nM |  |  | 
